From patent US20120207734A1 (priority 2011, published 2012)

Tested on: DU-145 cells
Assay type: cell-based, human

## C=C1[C@@H](C)[C@H]2[C@H](Cc3ccccc3)NC(=O)[C@]23[C@H](OC(C)=O)/C=C/[C@@](C)(O)C(=O)[C@@H](C)C/C=C/[C@H]3[C@@H]1O [Cytochalasin-D]
  Effect on cell migration: did not migrate
  Relative Wound Density at 24 Hours, Mean: 3.3 ± 0.2
  Relative Wound Density at 24 Hours, Percent Relative to Media: 4%
